Data published in ChEMBL document CHEMBL3400015, “Tertiary amides of Salinomycin: A new group of antibacterial agents against Bacillus anthracis and methicillin-resistant Staphylococcus epidermidis” (Bioorg Med Chem Lett, 2015).
≈ marks a conversion by molar mass, not a printed value.

Tests used:
Staphylococcus aureus [1] = assay: Bactericidal activity against Staphylococcus aureus ATCC 6538 after 24 hrs; type: functional; details: ATCC 6538, 24 h, read-out: MBC99.9
Bacillus anthracis = assay: Antimicrobial activity against Bacillus anthracis 34F2 after 18 hrs by twofold serial broth dilution method; type: functional; details: 34F2, 18 h
[2] = test system: Staphylococcus epidermidis; assay: Bactericidal activity against methicillin-resistant Staphylococcus epidermidis isolate 424/10 after 24 hrs; type: functional; details: isolate 424/10, 24 h, read-out: MBC99.9
Staphylococcus aureus [3] = assay: Antimicrobial activity against Staphylococcus aureus […] after 18 hrs by twofold serial broth dilution method; type: functional
[4] = test system: Staphylococcus epidermidis; assay: Antimicrobial activity against methicillin-resistant Staphylococcus epidermidis isolate 455/11 after 18 hrs by twofold serial broth dilution method; type: functional; details: isolate 455/11, 18 h
[5] = test system: Staphylococcus epidermidis; assay: Antimicrobial activity against methicillin-resistant Staphylococcus epidermidis isolate 460/11 after 18 hrs by twofold serial broth dilution method; type: functional; details: isolate 460/11, 18 h
[6] = test system: Staphylococcus epidermidis; assay: Bactericidal activity against methicillin-resistant Staphylococcus epidermidis isolate 460/11 after 24 hrs; type: functional; details: isolate 460/11, 24 h, read-out: MBC99.9
Bacillus subtilis [7] = assay: Genotoxicity in rec-negative Bacillus subtilis M45 at 2 ug/9 mm disc after 24 hrs by disc diffusion method; type: toxicity, organism-based
Escherichia coli [8] = assay: Bactericidal activity against Escherichia coli ATCC 10538 after 24 hrs; type: functional; details: ATCC 10538, 24 h, read-out: MBC99.9
Staphylococcus aureus [9] = assay: Antimicrobial activity against Staphylococcus aureus NCTC 4163 after 18 hrs by twofold serial broth dilution method; type: functional; details: NCTC 4163, 18 h
Pseudomonas aeruginosa [10] = assay: Bactericidal activity against Pseudomonas aeruginosa ATCC 27853 after 24 hrs; type: functional; details: ATCC 27853, 24 h, read-out: MBC99.9
[11] = test system: Staphylococcus epidermidis; assay: Antimicrobial activity against methicillin-resistant Staphylococcus epidermidis isolate 407/10 after 18 hrs by twofold serial broth dilution method; type: functional; details: isolate 407/10, 18 h
Staphylococcus aureus [12] = assay: Bactericidal activity against Staphylococcus aureus NCTC 4163 after 24 hrs; type: functional; details: NCTC 4163, 24 h, read-out: MBC99.9
[13] = test system: Staphylococcus epidermidis; assay: Bactericidal activity against methicillin-resistant Staphylococcus epidermidis isolate 458/11 after 24 hrs; type: functional; details: isolate 458/11, 24 h, read-out: MBC99.9
[14] = test system: Staphylococcus epidermidis; assay: Bactericidal activity against methicillin-resistant Staphylococcus epidermidis isolate 457/11 after 24 hrs; type: functional; details: isolate 457/11, 24 h, read-out: MBC99.9
[15] = test system: Staphylococcus epidermidis; assay: Antimicrobial activity against Staphylococcus epidermidis ATCC 35984 after 18 hrs by twofold serial broth dilution method; type: functional; details: ATCC 35984, 18 h
Pseudomonas aeruginosa [16] = assay: Bactericidal activity against Pseudomonas aeruginosa NCTC 6749 after 24 hrs; type: functional; details: NCTC 6749, 24 h, read-out: MBC99.9
Staphylococcus aureus [17] = assay: Bactericidal activity against Staphylococcus aureus ATCC 25923 after 24 hrs; type: functional; details: ATCC 25923, 24 h, read-out: MBC99.9
Escherichia coli [18] = assay: Antimicrobial activity against Escherichia coli NCTC 8196 after 18 hrs by twofold serial broth dilution method; type: functional; details: NCTC 8196, 18 h
[19] = test system: Staphylococcus epidermidis; assay: Bactericidal activity against methicillin-resistant Staphylococcus epidermidis isolate 454/11 after 24 hrs; type: functional; details: isolate 454/11, 24 h, read-out: MBC99.9
Pseudomonas aeruginosa [20] = assay: Antimicrobial activity against Pseudomonas aeruginosa NCTC 6749 after 18 hrs by twofold serial broth dilution method; type: functional; details: NCTC 6749, 18 h
Staphylococcus aureus [21] = assay: Bactericidal activity against Staphylococcus aureus […] after 24 hrs; type: functional; details: read-out: MBC99.9
[22] = test system: Staphylococcus epidermidis; assay: Bactericidal activity against methicillin-resistant Staphylococcus epidermidis isolate 409/10 after 24 hrs; type: functional; details: isolate 409/10, 24 h, read-out: MBC99.9
[23] = test system: Staphylococcus epidermidis; assay: Bactericidal activity against Staphylococcus epidermidis ATCC 35984 after 24 hrs; type: functional; details: ATCC 35984, 24 h, read-out: MBC99.9
[24] = test system: Staphylococcus epidermidis; assay: Bactericidal activity against methicillin-resistant Staphylococcus epidermidis isolate 403/10 after 24 hrs; type: functional; details: isolate 403/10, 24 h, read-out: MBC99.9
[25] = test system: Staphylococcus epidermidis; assay: Antimicrobial activity against methicillin-resistant Staphylococcus epidermidis isolate 457/11 after 18 hrs by twofold serial broth dilution method; type: functional; details: isolate 457/11, 18 h
Staphylococcus aureus [26] = assay: Antimicrobial activity against Staphylococcus aureus ATCC 25923 after 18 hrs by twofold serial broth dilution method; type: functional; details: ATCC 25923, 18 h
[27] = test system: Staphylococcus epidermidis; assay: Antimicrobial activity against methicillin-resistant Staphylococcus epidermidis isolate 459/11 after 18 hrs by twofold serial broth dilution method; type: functional; details: isolate 459/11, 18 h
[28] = test system: Staphylococcus epidermidis; assay: Antimicrobial activity against methicillin-resistant Staphylococcus epidermidis isolate 469/11 after 18 hrs by twofold serial broth dilution method; type: functional; details: isolate 469/11, 18 h
[29] = test system: Staphylococcus epidermidis; assay: Bactericidal activity against methicillin-resistant Staphylococcus epidermidis isolate 470/11 after 24 hrs; type: functional; details: isolate 470/11, 24 h, read-out: MBC99.9
[30] = test system: Staphylococcus epidermidis; assay: Bactericidal activity against methicillin-resistant Staphylococcus epidermidis isolate 407/10 after 24 hrs; type: functional; details: isolate 407/10, 24 h, read-out: MBC99.9
[31] = test system: Staphylococcus epidermidis; assay: Antimicrobial activity against methicillin-resistant Staphylococcus epidermidis isolate 424/10 after 18 hrs by twofold serial broth dilution method; type: functional; details: isolate 424/10, 18 h
[32] = test system: Staphylococcus epidermidis; assay: Antimicrobial activity against methicillin-resistant Staphylococcus epidermidis isolate 409/10 after 18 hrs by twofold serial broth dilution method; type: functional; details: isolate 409/10, 18 h
Pseudomonas aeruginosa [33] = assay: Bactericidal activity against Pseudomonas aeruginosa ATCC 15442 after 24 hrs; type: functional; details: ATCC 15442, 24 h, read-out: MBC99.9
[34] = test system: Staphylococcus epidermidis; assay: Antimicrobial activity against methicillin-resistant Staphylococcus epidermidis isolate 458/11 after 18 hrs by twofold serial broth dilution method; type: functional; details: isolate 458/11, 18 h
[35] = test system: Staphylococcus epidermidis; assay: Bactericidal activity against methicillin-resistant Staphylococcus epidermidis isolate 459/11 after 24 hrs; type: functional; details: isolate 459/11, 24 h, read-out: MBC99.9
[36] = test system: Staphylococcus epidermidis; assay: Antimicrobial activity against methicillin-resistant Staphylococcus epidermidis isolate 454/11 after 18 hrs by twofold serial broth dilution method; type: functional; details: isolate 454/11, 18 h
Escherichia coli [37] = assay: Antimicrobial activity against Escherichia coli ATCC 10538 after 18 hrs by twofold serial broth dilution method; type: functional; details: ATCC 10538, 18 h
Bacillus subtilis [38] = assay: Genotoxicity in rec-positive Bacillus subtilis H17 at 2 ug/9 mm disc after 24 hrs by disc diffusion method; type: toxicity, organism-based
[39] = test system: Staphylococcus epidermidis; assay: Antimicrobial activity against methicillin-resistant Staphylococcus epidermidis isolate 422/10 after 18 hrs by twofold serial broth dilution method; type: functional; details: isolate 422/10, 18 h
[40] = test system: Staphylococcus epidermidis; assay: Bactericidal activity against methicillin-resistant Staphylococcus epidermidis isolate 455/11 after 24 hrs; type: functional; details: isolate 455/11, 24 h, read-out: MBC99.9
Pseudomonas aeruginosa [41] = assay: Antimicrobial activity against Pseudomonas aeruginosa ATCC 27853 after 18 hrs by twofold serial broth dilution method; type: functional; details: ATCC 27853, 18 h
Escherichia coli [42] = assay: Antimicrobial activity against Escherichia coli ATCC 25922 after 18 hrs by twofold serial broth dilution method; type: functional; details: ATCC 25922, 18 h

## CC[C@@H](C(=O)[C@@H](C)[C@@H](O)[C@H](C)[C@@H]1O[C@@H]([C@@H](CC)C(=O)N(CCOC)CCOC)CC[C@@H]1C)[C@H]1O[C@]2(C=C[C@@H](O)[C@]3(CC[C@@](C)([C@H]4CC[C@](O)(CC)[C@H](C)O4)O3)O2)[C@H](C)C[C@@H]1C
Staphylococcus aureus [1]
  MBC: > 256 µg/mL
Bacillus anthracis
  MIC: 512 µg/mL (≈ 591 µM)
[2]
  MBC: > 256 µg/mL
Staphylococcus aureus [3]
  MIC: 128 µg/mL (≈ 148 µM)
[4]
  MIC: 128 µg/mL (≈ 148 µM)
[5]
  MIC: 128 µg/mL (≈ 148 µM)
[6]
  MBC: > 256 µg/mL
Bacillus subtilis [7]
  diameter of the inhibition zone (DIZ): 14 mm
Escherichia coli [8]
  MBC: > 256 µg/mL
Staphylococcus aureus [9]
  MIC: 64 µg/mL (≈ 73.9 µM)
Pseudomonas aeruginosa [10]
  MBC: > 256 µg/mL
[11]
  MIC: 128 µg/mL (≈ 148 µM)
Staphylococcus aureus [12]
  MBC: > 256 µg/mL
[13]
  MBC: > 256 µg/mL
[14]
  MBC: > 256 µg/mL
[15]
  MIC: 128 µg/mL (≈ 148 µM)
Pseudomonas aeruginosa [16]
  MBC: > 256 µg/mL
Staphylococcus aureus [17]
  MBC: > 256 µg/mL
Escherichia coli [18]
  MIC: > 256 µg/mL
[19]
  MBC: > 256 µg/mL
Pseudomonas aeruginosa [20]
  MIC: > 256 µg/mL
Staphylococcus aureus [21]
  MBC: > 256 µg/mL
[22]
  MBC: > 256 µg/mL
[23]
  MBC: > 256 µg/mL
[24]
  MBC: > 256 µg/mL
[25]
  MIC: 128 µg/mL (≈ 148 µM)
Staphylococcus aureus [26]
  MIC: 64 µg/mL (≈ 73.9 µM)
[27]
  MIC: 128 µg/mL (≈ 148 µM)
[28]
  MIC: 128 µg/mL (≈ 148 µM)
[29]
  MBC: > 256 µg/mL
[30]
  MBC: > 256 µg/mL
[31]
  MIC: 256 µg/mL (≈ 296 µM)
[32]
  MIC: 128 µg/mL (≈ 148 µM)
Pseudomonas aeruginosa [33]
  MBC: > 256 µg/mL
[34]
  MIC: 64 µg/mL (≈ 73.9 µM)
[35]
  MBC: > 256 µg/mL
[36]
  MIC: 64 µg/mL (≈ 73.9 µM)
Escherichia coli [37]
  MIC: > 256 µg/mL
Bacillus subtilis [38]
  diameter of the inhibition zone (DIZ): 13 mm
[39]
  MIC: 128 µg/mL (≈ 148 µM)
[40]
  MBC: > 256 µg/mL
Pseudomonas aeruginosa [41]
  MIC: > 256 µg/mL
Escherichia coli [42]
  MIC: > 256 µg/mL
